Source: ChEMBL document CHEMBL1201862, “PubChem BioAssay data set” (2004)
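1) Cells in 96-well plates. 2) Compound, 48 h, 5 concentrations. 3) Linear interpolation between surrounding doses. 4) Unreached endpoint = highest concentration. GI50 = concentration required for 50% inhibition of growth.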 The source made the active and inactive calls. Cut-off read from the data, not from the text of the source: active = GI50 up to about 1.1 µM and inactive = higher.

Key:
Assay in all cases: growth of human tumour cells (NCI), 48 h
RXF 393 = test system: RXF 393
NCI-H23 = test system: NCI-H23
NCI-H460 = test system: NCI-H460
SK-MEL-2 = test system: SK-MEL-2
RPMI-8226 = test system: RPMI-8226
CAKI-1 = test system: CAKI-1
OVCAR-5 = test system: OVCAR-5
SK-MEL-28 = test system: SK-MEL-28
SK-MEL-5 = test system: SK-MEL-5
SK-OV-3 = test system: SK-OV-3
OVCAR-4 = test system: OVCAR-4
SF-268 = test system: SF-268
U-251 = test system: U-251
A549 = test system: A549
ACHN = test system: ACHN
SW-620 = test system: SW-620
T47D = test system: T47D
K562 = test system: K562
786-0 = test system: 786-0
SR = test system: SR
SNB-75 = test system: SNB-75
MCF7 = test system: MCF7
HOP-62 = test system: HOP-62
NCI/ADR-RES = test system: NCI/ADR-RES
UACC-257 = test system: UACC-257
Hs-578T = test system: Hs-578T
SNB-19 = test system: SNB-19
OVCAR-8 = test system: OVCAR-8
SF-295 = test system: SF-295
SF-539 = test system: SF-539
HCT-116 = test system: HCT-116
TK-10 = test system: TK-10
OVCAR-3 = test system: OVCAR-3
HCT-15 = test system: HCT-15
CCRF-CEM = test system: CCRF-CEM
HCC 2998 = test system: HCC 2998
HOP-92 = test system: HOP-92
A498 = test system: A498
HL-60 = test system: HL-60
IGROV-1 = test system: IGROV-1
NCI-H522 = test system: NCI-H522
MDA-MB-231 = test system: MDA-MB-231
M14 = test system: M14
SN12C = test system: SN12C
PC-3 = test system: PC-3
EKVX = test system: EKVX
COLO 205 = test system: COLO 205
KM12 = test system: KM12
MDA-MB-435 = test system: MDA-MB-435
LOX IMVI = test system: LOX IMVI
UACC-62 = test system: UACC-62
MOLT-4 = test system: MOLT-4
HT-29 = test system: HT-29
NCI-H226 = test system: NCI-H226
UO-31 = test system: UO-31
DU-145 = test system: DU-145
Malme-3M = test system: Malme-3M

O=CC(O)C(O)C(O)C(O)COP(=O)(O)Cc1ccccc1 (stereo not drawn)
GI50 (RXF 393): > 10 µM (inactive) | GI50 (NCI-H23): > 10 µM (inactive) | GI50 (NCI-H460): > 10 µM (inactive) | GI50 (SK-MEL-2): > 10 µM (inactive) | GI50 (RPMI-8226): > 10 µM (inactive) | GI50 (CAKI-1): > 10 µM (inactive) | GI50 (OVCAR-5): > 10 µM (inactive) | GI50 (SK-MEL-28): > 10 µM (inactive) | GI50 (SK-MEL-5): > 10 µM (inactive) | GI50 (SK-OV-3): > 10 µM (inactive) | GI50 (OVCAR-4): > 10 µM (inactive) | GI50 (SF-268): > 10 µM (inactive) | GI50 (U-251): > 10 µM (inactive) | GI50 (A549): > 10 µM (inactive) | GI50 (ACHN): > 10 µM (inactive) | GI50 (SW-620): > 10 µM (inactive) | GI50 (T47D): > 10 µM (inactive) | GI50 (K562): > 10 µM (inactive) | GI50 (786-0): > 10 µM (inactive) | GI50 (SR): > 10 µM (inactive) | GI50 (SNB-75): > 10 µM (inactive) | GI50 (MCF7): > 10 µM (inactive) | GI50 (HOP-62): > 10 µM (inactive) | GI50 (NCI/ADR-RES): > 10 µM (inactive)

COc1ccc2cc1Oc1ccc(cc1)C[C@@H]1c3cc(c(OC)cc3CCN1C)Oc1c(OC)c(OC)cc3c1[C@H](C2)N(C)CC3 [ISOTETRANDRINE]
GI50 (RXF 393): 1.44 µM (inactive) | GI50 (UACC-257): 11.3 µM (inactive) | GI50 (Hs-578T): 16.7 µM (inactive) | GI50 (NCI-H23): 15.8 µM (inactive) | GI50 (NCI-H460): 15.2 µM (inactive) | GI50 (SNB-19): 20.4 µM (inactive) | GI50 (OVCAR-8): 17.9 µM (inactive) | GI50 (SF-295): 16.3 µM (inactive) | GI50 (SF-539): 8.89 µM (inactive) | GI50 (HCT-116): 17.7 µM (inactive) | GI50 (TK-10): 19.1 µM (inactive) | GI50 (OVCAR-3): 18.2 µM (inactive) | GI50 (HCT-15): 11.2 µM | GI50 (CCRF-CEM): 16.9 µM (inactive) | GI50 (HCC 2998): 12.7 µM (inactive) | GI50 (SK-MEL-5): 11.8 µM (inactive) | GI50 (SK-OV-3): 40.2 µM (inactive) | GI50 (OVCAR-4): 17.9 µM (inactive) | GI50 (SF-268): 21.7 µM (inactive) | GI50 (HOP-92): > 10 µM (inactive) | GI50 (U-251): 22.2 µM (inactive) | GI50 (ACHN): 13.4 µM (inactive) | GI50 (A498): 19.7 µM (inactive) | GI50 (HL-60): 10.8 µM (inactive) | GI50 (IGROV-1): 20.7 µM (inactive) | GI50 (K562): 4.16 µM (inactive) | GI50 (786-0): 24.7 µM (inactive) | GI50 (NCI-H522): 12.6 µM (inactive) | GI50 (MDA-MB-231): 14.7 µM (inactive) | GI50 (M14): 11.1 µM (inactive) | GI50 (SR): 2.41 µM (inactive) | GI50 (SNB-75): 12.4 µM (inactive) | GI50 (MCF7): 14 µM (inactive)

COc1cc(/C=N/N=C(\N)NO)cc(OC)c1OC
GI50 (RXF 393): 52.6 µM (inactive) | GI50 (UACC-257): 43.1 µM (inactive) | GI50 (Hs-578T): 42.2 µM (inactive) | GI50 (NCI-H23): 38.2 µM (inactive) | GI50 (NCI-H460): 28.2 µM (inactive) | GI50 (SK-MEL-2): 54.3 µM (inactive) | GI50 (SNB-19): > 100 µM (inactive) | GI50 (SN12C): 33.8 µM (inactive) | GI50 (OVCAR-8): 18.5 µM (inactive) | GI50 (PC-3): 44.6 µM (inactive) | GI50 (SF-295): 25.2 µM (inactive) | GI50 (EKVX): 19.6 µM (inactive) | GI50 (RPMI-8226): 37.2 µM (inactive) | GI50 (COLO 205): 12.4 µM (inactive) | GI50 (SF-539): 30.5 µM (inactive) | GI50 (HCT-116): 32.1 µM (inactive) | GI50 (KM12): 18.7 µM (inactive) | GI50 (TK-10): > 100 µM (inactive) | GI50 (OVCAR-3): 21.9 µM (inactive) | GI50 (CAKI-1): 72.4 µM (inactive) | GI50 (MDA-MB-435): 44.6 µM (inactive) | GI50 (LOX IMVI): 31.1 µM (inactive) | GI50 (HCT-15): 28.6 µM | GI50 (UACC-62): 13.5 µM (inactive) | GI50 (CCRF-CEM): 31.8 µM (inactive) | GI50 (HCC 2998): 36.6 µM (inactive) | GI50 (OVCAR-5): 49.5 µM (inactive) | GI50 (SK-MEL-28): 57 µM (inactive) | GI50 (SK-MEL-5): 20.6 µM (inactive) | GI50 (SK-OV-3): 67.8 µM (inactive) | GI50 (OVCAR-4): 40.8 µM (inactive) | GI50 (SF-268): 31.1 µM (inactive) | GI50 (HOP-92): 23.5 µM (inactive) | GI50 (U-251): 52.2 µM (inactive) | GI50 (A549): 18.7 µM (inactive) | GI50 (ACHN): 21.5 µM (inactive) | GI50 (MOLT-4): 40.6 µM (inactive) | GI50 (SW-620): 50 µM (inactive) | GI50 (A498): 46.3 µM (inactive) | GI50 (HL-60): 23 µM (inactive) | GI50 (T47D): 36.6 µM (inactive) | GI50 (HT-29): 22.8 µM (inactive) | GI50 (IGROV-1): 42.7 µM (inactive) | GI50 (K562): 21.6 µM (inactive) | GI50 (786-0): 15.4 µM (inactive) | GI50 (NCI-H522): 34.8 µM (inactive) | GI50 (MDA-MB-231): > 100 µM (inactive) | GI50 (M14): 28.4 µM (inactive) | GI50 (NCI-H226): 20.5 µM (inactive) | GI50 (SR): 24.5 µM (inactive) | GI50 (MCF7): 22.6 µM (inactive) | GI50 (UO-31): 33.1 µM (inactive) | GI50 (DU-145): 26.3 µM (inactive) | GI50 (HOP-62): 27.4 µM (inactive) | GI50 (NCI/ADR-RES): 15.7 µM (inactive) | GI50 (Malme-3M): 22 µM (inactive)
